The values below come from ChEMBL document CHEMBL3046161, “Synthesis of potential antitubercular and antimicrobial s-triazine-based scaffolds via Suzuki cross-coupling reaction” (2013).

Holding throughout (format): functional
Experiment [1] concerns Bacillus cereus. The experiment in a line: Antibacterial activity against Bacillus cereus MTCC 430 assessed as growth inhibition at 3.12 to 50 ug/mL after 24 hr by agar disk diffusion method.
For experiment [2], the system named is Aspergillus fumigatus. The experiment in a line: Antifungal activity against Aspergillus fumigatus MTCC 343 assessed as growth inhibition at 3.12 to 50 ug/mL after 24 hr by agar disk diffusion method.
Experiment [3] relates to Aspergillus clavatus. Description: Antifungal activity against Aspergillus clavatus MTCC 1323 assessed as growth inhibition at 3.12 to 50 ug/mL after 24 hr by agar disk diffusion method.
Experiment [4] relates to Pseudomonas aeruginosa. Description: Antibacterial activity against Pseudomonas aeruginosa MTCC 741 assessed as growth inhibition after 24 hr by agar streak dilution method. The conditions noted are these: MTCC 741, 24 h.
Experiment [5] relates to Aspergillus clavatus. Description: Antifungal activity against Aspergillus clavatus MTCC 1323 assessed as growth inhibition after 48 hr by agar streak dilution method. Conditions: MTCC 1323, 48 h.
Experiment [6] concerns Mycobacterium tuberculosis. The experiment in a line: Antimycobacterial activity against Mycobacterium tuberculosis H37Rv assessed as growth inhibition at MIC measured within 10 days by BACTEC MGIT method.
Experiment [7] deals with Proteus vulgaris. The experiment in a line: Antibacterial activity against Proteus vulgaris MTCC 1771 assessed as growth inhibition after 24 hr by agar streak dilution method. The conditions noted are these: MTCC 1771, 24 h.
In experiment [8] the test system is Klebsiella pneumoniae. Description: Antibacterial activity against Klebsiella pneumoniae MTCC 109 assessed as growth inhibition at 3.12 to 50 ug/mL after 24 hr by agar disk diffusion method.
Experiment [9] has as its system Candida albicans. The experiment in a line: Antifungal activity against Candida albicans MTCC 183 assessed as growth inhibition at 3.12 to 50 ug/mL after 24 hr by agar disk diffusion method.
The subject of experiment [10] is Mycobacterium tuberculosis. The experiment in a line: Antimycobacterial activity against Mycobacterium tuberculosis H37Rv assessed as growth inhibition measured within 10 days by BACTEC MGIT method. Conditions: 240 h.
Experiment [11] concerns Proteus vulgaris. The experiment in a line: Antibacterial activity against Proteus vulgaris MTCC 1771 assessed as growth inhibition at 3.12 to 50 ug/mL after 24 hr by agar disk diffusion method.
The subject of experiment [12] is Aspergillus niger. The experiment in a line: Antifungal activity against Aspergillus niger MTCC 282 assessed as growth inhibition at 3.12 to 50 ug/mL after 24 hr by agar disk diffusion method.
In experiment [13] the test system is Staphylococcus aureus. The experiment in a line: Antibacterial activity against Staphylococcus aureus MTCC 96 assessed as growth inhibition after 24 hr by agar streak dilution method. Conditions: MTCC 96, 24 h.
The subject of experiment [14] is Aspergillus fumigatus. The experiment in a line: Antifungal activity against Aspergillus fumigatus MTCC 343 assessed as growth inhibition after 48 hr by agar streak dilution method. The conditions noted are these: MTCC 343, 48 h.
For experiment [15], the system named is Salmonella typhi. The experiment in a line: Antibacterial activity against Salmonella enterica subsp. enterica serovar Typhi MTCC 733 assessed as growth inhibition at 3.12 to 50 ug/mL after 24 hr by agar disk diffusion method.
Experiment [16] concerns Shigella flexneri. Description: Antibacterial activity against Shigella flexneri MTCC 1457 assessed as growth inhibition at 3.12 to 50 ug/mL after 24 hr by agar disk diffusion method.
Experiment [17] deals with Escherichia coli. The experiment in a line: Antibacterial activity against Escherichia coli MTCC 739 assessed as growth inhibition at 3.12 to 50 ug/mL after 24 hr by agar disk diffusion method.
Experiment [18] relates to Klebsiella pneumoniae. The experiment in a line: Antibacterial activity against Klebsiella pneumoniae MTCC 109 assessed as growth inhibition after 24 hr by agar streak dilution method. Conditions: MTCC 109, 24 h.
Experiment [19] deals with Escherichia coli. The experiment in a line: Antibacterial activity against Escherichia coli MTCC 739 assessed as growth inhibition after 24 hr by agar streak dilution method. Conditions: MTCC 739, 24 h.
Experiment [20] deals with Bacillus cereus. Description: Antibacterial activity against Bacillus cereus MTCC 430 assessed as growth inhibition after 24 hr by agar streak dilution method. The conditions noted are these: MTCC 430, 24 h.
Experiment [21] concerns Salmonella typhi. The experiment in a line: Antibacterial activity against Salmonella enterica subsp. enterica serovar Typhi MTCC 733 assessed as growth inhibition after 24 hr by agar streak dilution method. Conditions: MTCC 733, 24 h.
Experiment [22] deals with Staphylococcus aureus. The experiment in a line: Antibacterial activity against Staphylococcus aureus MTCC 96 assessed as growth inhibition at 3.12 to 50 ug/mL after 24 hr by agar disk diffusion method.
In experiment [23] the test system is Mycobacterium tuberculosis. Description: Antimycobacterial activity against Mycobacterium tuberculosis H37Rv assessed as growth inhibition at MIC after 12 to 28 days by Lowenstein and Jensen agar dilution method.
The test system of experiment [24] is Shigella flexneri. The experiment in a line: Antibacterial activity against Shigella flexneri MTCC 1457 assessed as growth inhibition after 24 hr by agar streak dilution method. Conditions: MTCC 1457, 24 h.
The subject of experiment [25] is Mycobacterium tuberculosis. Description: Antimycobacterial activity against Mycobacterium tuberculosis H37Rv assessed as growth inhibition after 12 to 28 days by Lowenstein and Jensen agar dilution method.
The test system of experiment [26] is Pseudomonas aeruginosa. The experiment in a line: Antibacterial activity against Pseudomonas aeruginosa MTCC 741 assessed as growth inhibition at 3.12 to 50 ug/mL after 24 hr by agar disk diffusion method.
The subject of experiment [27] is Aspergillus niger. Description: Antifungal activity against Aspergillus niger MTCC 282 assessed as growth inhibition after 48 hr by agar streak dilution method. The conditions noted are these: MTCC 282, 48 h.
For experiment [28], the system named is Candida albicans. The experiment in a line: Antifungal activity against Candida albicans MTCC 183 assessed as growth inhibition after 48 hr by agar streak dilution method. The conditions noted are these: MTCC 183, 48 h.

In brackets after ≈: the same amount, converted by molar mass. Where only a bound is given, the exact number is not on record here.

On to `COc1ccc(NC(=O)CNc2ccc(-c3nc(N4CC(C)CC(C)C4)nc(N4CC(C)CC(C)C4)n3)cc2)cc1` (stereo unspecified), for which the “inhibition zone (IZ)” value in the experiment on Bacillus cereus [1] is reported as 23 mm; in the experiment on Aspergillus fumigatus [2], <10 mm; with Aspergillus clavatus [3], <10 mm; in the experiment on Klebsiella pneumoniae [8], <10 mm; with Candida albicans [9], 21 mm; in the experiment on Proteus vulgaris [11], 22 mm. For the same molecule, the “inhibition zone (IZ)” value in the experiment on Aspergillus niger [12] turned out to be 14 mm; with Salmonella typhi [15] it was 20 mm; in the experiment on Shigella flexneri [16], 19 mm; with Escherichia coli [17] it was 19 mm; with Staphylococcus aureus [22], 16 mm; in the experiment with Pseudomonas aeruginosa [26], 22 mm. The minimum inhibitory concentration (MIC) in the experiment with Pseudomonas aeruginosa [4] was 50 µg/mL (≈ 89.6 µM); in the experiment with Aspergillus clavatus [5], > 50 µg/mL; with Proteus vulgaris [7] it was 25 µg/mL (≈ 44.8 µM); in [10] it was 6.25 µg/mL (≈ 11.2 µM); in the experiment with Staphylococcus aureus [13], 50 µg/mL (≈ 89.6 µM); in the experiment on Aspergillus fumigatus [14], > 50 µg/mL. For the same molecule, the MIC in the experiment with Klebsiella pneumoniae [18] worked out at 50 µg/mL (≈ 89.6 µM); in the experiment with Escherichia coli [19] it was 50 µg/mL (≈ 89.6 µM); in the experiment with Bacillus cereus [20], 25 µg/mL (≈ 44.8 µM); with Salmonella typhi [21] it was 25 µg/mL (≈ 44.8 µM); with Shigella flexneri [24], 50 µg/mL (≈ 89.6 µM); in [25] it was 6.25 µg/mL (≈ 11.2 µM). Besides, the values for the minimal inhibitory concentration (MIC) in the experiment with Aspergillus niger [27] and in the experiment on Candida albicans [28] were 50 µg/mL (≈ 89.6 µM) and 25 µg/mL (≈ 44.8 µM), respectively. The “growth inhibition (GI)” value in [6] and in [23] was 99% throughout.

In the case of `CC[C@@H](CO)NCCN[C@@H](CC)CO` [ETHAMBUTOL], the “growth inhibition (GI)” value in experiment [6] is on record as 99%. Besides, the MIC in [10] was determined as 3.12 µg/mL (≈ 15.3 µM).

On to `NNC(=O)c1ccncc1` [ISONIAZID], for which the “growth inhibition (GI)” value in [6] was found to be 99%. Moreover, the MIC in experiment [10] came to 0.2 µg/mL (≈ 1.46 µM).

Regarding `NC(=O)c1cnccn1` [PYRAZINAMIDE], the “growth inhibition (GI)” value in experiment [6] is reported as 99%. Besides, the minimal inhibitory concentration (MIC) in experiment [10] was 6.25 µg/mL (≈ 50.8 µM).

Take `CO[C@H]1/C=C/O[C@@]2(C)Oc3c(C)c(O)c4c(O)c(c(/C=N/N5CCN(C)CC5)c(O)c4c3C2=O)NC(=O)/C(C)=C\C=C\[C@H](C)[C@H](O)[C@@H](C)[C@@H](O)[C@@H](C)[C@H](OC(C)=O)[C@@H]1C` [RIFAMPIN]: the “growth inhibition (GI)” value in experiment [6] came out at 99%. The MIC in experiment [10] came to 0.25 µg/mL (≈ 0.304 µM).
